Measurements taken from ChEMBL document CHEMBL3588753, “Recent progress in the drug development of coumarin derivatives as potent antituberculosis agents” (2015).
≈ marks a conversion by molar mass, not a printed value.

The molecules below were run on Mycobacterium tuberculosis variant bovis (assay: Antimycobacterial activity against Mycobacterium bovis).
Format: functional

Row | Compound | MIC [µg/mL]
1 | COC(=O)C1C(=O)Oc2ccc(Br)cc2C1C(=O)NC1CCCCC1 (stereo not drawn) | 15.6 (≈ 38 µM)
2 | CC(C)COC(=O)C1C(=O)Oc2ccccc2C1C(=O)NC1CCCCC1 (stereo not drawn) | 15.6 (≈ 41.8 µM)
3 | O=C(OCc1ccc(F)cc1)C1C(=O)Oc2ccc(Br)cc2C1C(=O)NC1CCCCC1 (stereo not drawn) | 15.6 (≈ 30.9 µM)
